In patent US20040186081A1, “Naaladase inhibitors for treating opioid tolerance” (Guilford Pharmaceuticals Inc., priority 2003, published 2004):

molecular target: NAALADase (Homo sapiens, UniProt Q04609); experiment: In vitro inhibition of NAALADase activity; assay type: biochemical; conditions: read-out: IC50
Sequence (Q04609 whole entry): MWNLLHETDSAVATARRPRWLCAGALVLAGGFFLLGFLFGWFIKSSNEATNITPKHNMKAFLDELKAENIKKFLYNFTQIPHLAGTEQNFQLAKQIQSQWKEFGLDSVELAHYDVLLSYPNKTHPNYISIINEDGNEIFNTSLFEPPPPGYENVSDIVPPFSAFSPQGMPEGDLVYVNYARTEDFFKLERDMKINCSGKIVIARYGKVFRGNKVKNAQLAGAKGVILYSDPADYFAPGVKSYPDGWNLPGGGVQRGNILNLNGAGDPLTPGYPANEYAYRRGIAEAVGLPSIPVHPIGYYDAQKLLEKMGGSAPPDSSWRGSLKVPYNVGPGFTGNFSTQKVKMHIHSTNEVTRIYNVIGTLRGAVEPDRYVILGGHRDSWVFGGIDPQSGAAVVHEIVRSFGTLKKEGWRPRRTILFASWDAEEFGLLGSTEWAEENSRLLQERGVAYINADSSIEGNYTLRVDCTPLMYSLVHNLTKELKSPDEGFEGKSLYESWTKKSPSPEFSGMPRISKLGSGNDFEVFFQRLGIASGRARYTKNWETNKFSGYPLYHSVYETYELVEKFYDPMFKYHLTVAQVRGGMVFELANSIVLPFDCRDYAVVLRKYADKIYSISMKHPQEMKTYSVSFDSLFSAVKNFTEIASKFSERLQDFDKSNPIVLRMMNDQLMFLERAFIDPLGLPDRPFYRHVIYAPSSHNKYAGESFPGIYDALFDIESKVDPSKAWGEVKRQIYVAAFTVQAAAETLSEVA

IC50 | SMILES
0.024 µM | O=C(O)c1cccc(SC(CCCS)C(=O)O)c1 (stereo not shown) [3-[1-carboxy-4-mercaptobutyl)thio]-benzoic acid]
41.5 µM | CCC(SCC(Cc1cccc(C(=O)O)c1)C(=O)O)C(=O)NO (stereo not shown) [3-[2-Carboxy-3-(1-hydroxycarbamoyl-propylsulfanyl)-propyl]-benzoic acid]
6.05 µM | O=C(CCCSCC(Cc1cccc(C(=O)O)c1)C(=O)O)NO (stereo not shown) [3-[2-Carboxy-3-(3-hydroxycarbamoyl-propylsulfanyl)-propyl]-benzoic acid]
19 µM | CCC(SCCC(Cc1cccc(C(=O)O)c1)C(=O)O)C(=O)NO (stereo not shown) [3-[2-Carboxy-4-(1-hydroxycarbamoyl-propylsulfanyl)-butyl]-benzoic acid]
2.8 µM | CC(C)C(SCCCC(Cc1cccc(C(=O)O)c1)C(=O)O)C(=O)NO (stereo not shown) [3-[2-Carboxy-5-(1-hydroxycarbamoyl-2-methyl-propylsulfanyl)-pentyl]-benzoic acid]
1.53 µM | CCCC(SCCCC(Cc1cccc(C(=O)O)c1)C(=O)O)C(=O)NO (stereo not shown) [3-[2-Carboxy-5-(1-hydroxycarbamoyl-butylsulfanyl)-pentyl]-benzoic acid]
3.29 µM | CCC(SCCCC(Cc1cccc(C(=O)O)c1)C(=O)O)C(=O)NO (stereo not shown) [3-[2-Carboxy-5-(1-hydroxycarbamoyl-propylsulfanyl)-pentyl]-benzoic acid]
0.113 µM | O=C(CCSCCCC(Cc1cccc(C(=O)O)c1)C(=O)O)NO (stereo not shown) [3-[2-Carboxy-5-(2-hydroxycarbamoyl-ethylsulfanyl)-pentyl]-benzoic acid]
7.58 µM | O=C(CCCCSCCCC(Cc1cccc(C(=O)O)c1)C(=O)O)NO (stereo not shown) [3-[2-Carboxy-5-(4-hydroxycarbamoyl-butylsulfanyl)-pentyl]-benzoic acid]
1.12 µM | O=C(O)c1cccc(CC(CCCSC(C(=O)NO)c2ccccc2)C(=O)O)c1 (stereo not shown) [3-[2-Carboxy-5-(hydroxycarbamoyl-phenyl-methylsulfanyl)-pentyl]-benzoic acid]
92.7 µM | O=C(CCc1cccc(OCc2cccc(C(=O)O)c2)c1)NO [3-[3-(2-Hydroxycarbamoyl-ethyl)-phenoxymethyl]-benzoic acid]

The remaining lines, values behind:

SMILES | IC50
COC(=O)c1cccc(-c2cccc(OCCC(=O)NO)c2C(=O)OC)c1 [3-(2-Hydroxycarbamoyl-ethoxy)-biphenyl-2,3′-dicarboxylic acid dimethyl ester] | ≥ 100 µM
O=C(O)c1ccccc1Oc1cccc(CC(CCCS)C(=O)O)c1 (stereo not drawn) [3-(2-carboxyphenoxy)-alpha-(3-mercaptopropyl)-benzenepropanoic acid] | 0.049 µM
O=C(O)c1ccc(-c2cccc(CCS)c2C(=O)O)cc1 [3-(2-mercaptoethyl)-[1,1′-biphenyl]-2,4′-dicarboxylic acid] | 0.00428 µM
O=C(O)c1cccc(CCS)c1 [3-(2-mercaptoethyl)-benzoic acid] | 6.05 µM
O=C(CCCOc1cccc(-c2cccc(C(=O)O)c2)c1C(=O)O)NO [3-(3-Hydroxycarbamoyl-propoxy)-biphenyl-2,3′-dicarboxylic acid] | 9.1 µM
O=C(O)c1cccc(CS)c1 [3-(mercaptomethyl)-benzoic acid] | 3.78 µM
O=C(CSCCCC(Cc1cc(OCc2ccccc2)cc(C(=O)O)c1)C(=O)O)NO (stereo not shown) [3-Benzyloxy-5-(2-carboxy-5-hydroxycarbamoylmethyl-sulfanylpentyl)-benzoic acid] | 2.57 µM
O=C(CSCCCC(Cc1cc(Br)cc(C(=O)O)c1)C(=O)O)NO (stereo not shown) [3-Bromo-5-(2-carboxy-5-hydroxycarbamoyl-methylsulfanylpentyl)-benzoic acid] | 2.46 µM
O=C(COc1cccc(C(=O)O)c1)NO [3-Hydroxycarbamoylmethoxy-benzoic acid] | 40.8 µM
COC(=O)c1cccc(-c2cccc(OCC(=O)NO)c2C(=O)OC)c1 [3-Hydroxycarbamoylmethoxy-biphenyl-2,3′-dicarboxylic acid dimethyl ester] | ≥ 100 µM
O=C(COc1cccc(-c2cccc(C(=O)O)c2)c1C(=O)O)NO [3-Hydroxycarbamoylmethoxy-biphenyl-2,3′-dicarboxylic acid] | 27.6 µM
